Here are results for seven compounds from patent publication US5002972A, “Compound and composition of substituted hexenoic acid derivatives useful for treating thromboxane A2 mediated diseases” (Shionogi & Co., Ltd., priority 1989, dated 1991).

pEC50, pIC50: −log10 of the molar value.

The test system of data set [1] is washed platelets. Description: Inhibitory effect on collagen-induced platelet aggregation (antagonistic activity), rat washed platelets. In kind it is cell-based. Particulars: 0.05 h, collagen 4 μg/ml as inducer, light transmission 3 minutes after inducer, read-out: Inhibition for Platelet Aggregation IC50. The procedure: (§1) From the abdominal artery of a male rat (Sprague-Dowley, 8 weeks old) was collected 10 ml of blood with a plastic syringe containing 1.5 ml of ACD (85 mM of sodium citrate, 70 mM of citric acid, 110 mM of glucose) and 20 μg of prostaglandin E1. The blood is placed in a plastic test tube, shaken moderately turning and centrifuged for 10 minutes at 160×g to give platelet rich plasma (PRP). To the prepared PRP was added apyrase (25 μg/ml) and the mixture was layered on 40% bovine serum albumin. The resulting mixture is centrifuged at 1200×g for 25 minutes. The platelet pellets suspended in a small amount of a buffer (137 mM of NaCl, 2.7 mM of KCl, 1.0 mM of MgCl2, 3.8 mM of NaH2 PO4, 3.8 mM of Hepes, 5.6 mM of glucose, 0.035% of bovine serum albumin, pH 7.35) was applied on 10 ml of Sephaose 2B column and eluted with such a buffer to prepare washed platelets.
(§2) The platelet aggregation reaction was measured by an aggregometer (NKK HEMA TRACER 1 MODEL PAT-6A.6M, Niko bioscience). In a measuring cuvette was placed 245 μl of the washed platelets of which platelet concentration was adjusted to 5×10^5 / μl and set in the aggregometer. The adjusted washed platelet was stirred (1000 rpm) at 37° C. and 3.8 μl of 0.1M of CaCl2 was added thereto. One minute later, 0.5 μl of a solution of a test compound in dimethylsulfoxide was added and 2 minutes later, 1 μl of collagen (Collagen reagent Horm®, HORMON-CHEMIE Munchen GMBH, final concentration 4 μg/ml) as an inducer for platelet aggregation was added. The platelet aggregation was monitored with an aggregometer in terms of the increase and decrease in light transmission.
Concentration of 50% inhibition was calculated from the inhibitory rate of aggregation (this correspondes to light transmission of a sample which is measured at 3 minutes after the addition of a platelet aggregating inducer, provided that light transmissions of the washed platelets and the buffer samples are taken as 0% and 100%, respectively.)

For data set [2], the system named is washed platelets. Put plainly: Partial agonistic activity (shape change of rat platelets). Particulars: Platelet, decrease in light transmission by test compound itself, 50% of maximal agonistic activity of reference compound, read-out: Activity of Partial Agonist EC50. It is filed as cell-based. The method, then:
as §1, §2
The measurement of partial agonistic activity was carried out according to the method shown for platelet aggregation. To the washed platelets was added 0.1M of CaCl2 and one minute later a test compound was added thereto. The decrease in light transmission caused by the test compound itself was measured to estimate the activity.

Data set [3] can be described thus: Acute toxicity, intravenous, mice. The note with it: mouse, in vivo, male SclddY mice, tail vein injection in saline, mortality within 24 hours, Probit method. The method, then: Male SclddY mice (4-weekage, 23-27 g) were used. Each experimental group consists of 5 animals. After injecting the test compound dissolved in saline into a tial vein, the mortality within 24 hours was obtained as an LD50 value by the Probit method.

For the compound `O=C(O)CCC/C=C\[C@H]1[C@@H]2CC[C@@H](C2)[C@@H]1NS(=O)(=O)c1ccccc1` [Ia-c, (1R,2R,3S,4S)-sodium (5Z)-6-(3-phenylsulfonylaminobicyclo[2.2.1]hept-2-yl)-5-hexenoate], the pIC50 in the data set with washed platelets [1] was 8.22. In addition, in the data set with washed platelets [2], the pEC50 was less than 6.00. In data set [3], this compound returned an LD50 at 24 h of 237 mg/kg.
With `Cc1ccc(S(=O)(=O)N[C@H]2[C@H]3CC[C@H](C3)[C@@H]2/C=C\CCCC(=O)O)cc1` [Ib-c, (1R,2R,3S,4S)-sodium (5Z)-6-[3-(p-tolylsulfonylamino)bicyclo[2.2.1]hept-2-yl]-5-hexenoate], the pIC50 with washed platelets [1] is 8.22. For the same compound, in the data set on washed platelets [2], the negative-log EC50 (pEC50) is less than 6.00.
For `O=C(O)CCC/C=C\[C@H]1[C@@H]2CC[C@@H](C2)[C@@H]1NS(=O)(=O)c1ccc(O)cc1` [Ic-c, (1R,2R,3S,4S)-sodium (5Z)-6-[3-(4-hydroxyphenylsulfonylamino)bicyclo[2.2.1]hept-2-yl]-5-hexenoate] the same measures were 8.22 and 6.82.
For `O=C(O)CCC/C=C\[C@H]1[C@@H]2CC[C@@H](C2)[C@@H]1NS(=O)(=O)c1ccc(Br)cc1` [Id-c, (1R,2R,3S,4S)-sodium (5Z)-6-[3-(4-bromophenylsulfonylamino)bicyclo[2.2.1]hept-2-yl]-5-hexenoate] the same measures were 8.30 and 6.89.
For `O=C(O)CCC/C=C\[C@H]1[C@@H]2CC[C@@H](C2)[C@@H]1NS(=O)(=O)c1ccc(Cl)cc1` [Ie-c, (1R,2R,3S,4S)-sodium (5Z)-6-[3-(4-chlorophenylsulfonylamino)bicyclo[2.2.1]hept-2-yl]-5-hexenoate] the same measures were 8.30 and 6.52.
Consider `O=S(=O)(N[C@H]1[C@H]2CC[C@H](C2)[C@@H]1/C=C\CCCc1nnn[nH]1)c1ccccc1` [If-c, (1R,2R,3S,4S)-3-phenylsulfonylamino-2-[(1Z)-5-(5-tetrazolyl)-1-pentenyl]bicyclo[2.2.1]heptane], for which, in the data set on washed platelets [1], the negative-log IC50 (pIC50) was 8.40. Also, the negative-log EC50 (pEC50) in the data set with washed platelets [2] is less than 6.00. Moreover, in data set [3], the median lethal dose (LD50) at 24 h turned out to be 209 mg/kg.
With `Cc1ccc(S(=O)(=O)N[C@H]2[C@H]3CC[C@H](C3)[C@@H]2C/C=C\CCCC(=O)O)cc1` [Rf. Compd., reference compound], the negative-log IC50 (pIC50) in the data set with washed platelets [1] was 8.70. In the data set with washed platelets [2], the negative-log EC50 (pEC50) was 9.00.

One may read the pIC50 as the negative decadic logarithm of the IC50, by convention in mol/L. One may read the pEC50 as −log10 of the EC50, conventionally taken in molar units. What is called LD50 is the dose at which mortality reaches 50%. High values mean lower toxicity, low ones greater toxicity.
